Measured values: the supplement of paper PMC11061612

What was measured:
DSH1 (Bladder Carcinoma) [1] = experiment: Bliss excess, mean over the matrix (fraction); higher = more synergy
Procedure, shortened: (§1)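 Bliss excess equals the observed combination effect minus the expected value EA + EB − EA·EB, where EA and EB are the effects of each agent alone. Combination Emax is the second-highest inhibition within the matrix. Inhibition was scaled from CellTiter-Glo 2.0 luminescence, with 0 set by vehicle wells and 1 by blank wells, after 72 hours of two-drug dosing of cells plated in 1536-well plates.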

[2] = tested on: JiyoyeP-2003 (Burkitt's Lymphoma); experiment: as above
Procedure, shortened: as §1

[3] = tested on: COR-L95 (Small Cell Lung Carcinoma); experiment: as above
Procedure, shortened: as §1

[4] = tested on: LS-513 (Colorectal Carcinoma); experiment: as above
Procedure, shortened: as §1

[5] = tested on: HPAC (Pancreatic Carcinoma); experiment: as above
Procedure, shortened: as §1

[6] = tested on: KARPAS-620 (Plasma Cell Myeloma); experiment: as above
Procedure, shortened: as §1

RH-1 (Ewing's Sarcoma) = experiment: as above
Procedure, shortened: as §1

[7] = tested on: CFPAC-1 (Pancreatic Carcinoma); experiment: as above
Procedure, shortened: as §1

[8] = tested on: 697 (B-Lymphoblastic Leukemia); experiment: as above
Procedure, shortened: as §1

DSH1 (Bladder Carcinoma) [9] = experiment: combination Emax (second highest fraction inhibited in the dose matrix, 72 h); higher = more inhibition; extreme values may be limits of the assay
Procedure, shortened: as §1

[10] = tested on: NCI-H1781 (Lung Adenocarcinoma); experiment: as above
Procedure, shortened: as §1

[11] = tested on: DMS-273 (Small Cell Lung Carcinoma); experiment: as above
Procedure, shortened: as §1

[12] = tested on: KM-H2 (Hodgkin's Lymphoma); experiment: as above
Procedure, shortened: as §1

[13] = tested on: SW756 (Cervical Carcinoma); experiment: as above
Procedure, shortened: as §1

[14] = tested on: C3A (Hepatocellular Carcinoma); experiment: as above
Procedure, shortened: as §1

[15] = tested on: COR-L95 (Small Cell Lung Carcinoma); experiment: as above
Procedure, shortened: as §1

[16] = tested on: MDA-MB-231 (Breast Carcinoma); experiment: as above
Procedure, shortened: as §1

[17] = tested on: DB (B-Cell Non-Hodgkin's Lymphoma); experiment: as above
Procedure, shortened: as §1

[18] = tested on: HT-29 (Colorectal Carcinoma); experiment: as above
Procedure, shortened: as §1

[19] = tested on: NALM-6 (B-Lymphoblastic Leukemia); experiment: as above
Procedure, shortened: as §1

Row | SMILES | Bliss excess (DSH1 (Bladder Carcinoma) [1]) | Bliss excess [2] | Bliss excess [3] | Bliss excess [4] | Bliss excess [5] | Bliss excess [6] | Bliss excess (RH-1 (Ewing's Sarcoma)) | Bliss excess [7] | Bliss excess [8] | combination Emax (DSH1 (Bladder Carcinoma) [9]) | combination Emax [10] | combination Emax [11] | combination Emax [12] | combination Emax [13] | combination Emax [14] | combination Emax [15] | combination Emax [16] | combination Emax [17] | combination Emax [18] | combination Emax [19]
1 | CN(C)CCCOc1ccc(-c2ccc3ncc4c(c3c2)n(C2CCOCC2)c(=O)n4C)cn1 [AZD0156] + O=C(c1cc(Cc2n[nH]c(=O)c3ccccc23)ccc1F)N1CCN(C(=O)C2CC2)CC1 [Olaparib] (first compound max 3 µM, partner max 3 µM) | 0.0328 | 0.007 | -0.11 | 0.0071 | 0.0152 | 0.0798 | 0.265 | -0.0026 | 0.186 | 0.387 | 0.585 | 0.433 | 0.401 | 0.155 | 0.22 | 0.373 | 0.405 | 0.476 | 0.407 | 0.696
2 | C[C@@H]1COCCN1c1cc(C2([S@](C)(=N)=O)CC2)nc(-c2ccnc3[nH]ccc23)n1 [AZD6738] + O=C(c1cc(Cc2n[nH]c(=O)c3ccccc23)ccc1F)N1CCN(C(=O)C2CC2)CC1 [Olaparib] (first compound max 10 µM, 7x7, partner max 10 µM) | -0.0205 | 0.0005 | -0.0399 | 0.0419 | 0.0125 | -0.0168 | 0.0873 | -0.0069 | 0.0073 | 0.752 | 0.59 | 0.721 | 0.785 | 0.228 | 0.429 | 0.517 | 0.572 | 0.736 | 0.799 | 0.976
3 | Cc1cc2ncnn2cc1Nc1ncc2c(n1)n(C1CCOCC1)c(=O)n2C [AZD7648] + CCN(CCO)CCCOc1ccc2c(Nc3cc(CC(=O)Nc4cccc(F)c4)[nH]n3)ncnc2c1 [AZD2811] (first compound max 10 µM, 7x7, partner max 1 µM) | 0.0145 | 0.0829 | -0.003 | -0.0033 | -0.032 | 0.0088 | -0.0385 | 0.0181 | 0.018 | 0.362 | 0.671 | 0.82 | 0.209 | 0.108 | 0.269 | 0.256 | 0.477 | 0.601 | 0.265 | 0.771
4 | CN(C)CCCOc1ccc(-c2ccc3ncc4c(c3c2)n(C2CCOCC2)c(=O)n4C)cn1 [AZD0156] + CCN(CCO)CCCOc1ccc2c(Nc3cc(CC(=O)Nc4cccc(F)c4)[nH]n3)ncnc2c1 [AZD2811] (first compound max 1 µM, 7x7, partner max 1 µM) | 0.0062 | 0.0832 | -0.0116 | -0.0559 | 0.012 | 0.112 | -0.0337 | -0.0713 | -0.015 | 0.211 | 0.608 | 0.793 | 0.327 | 0.125 | 0.129 | 0.208 | 0.206 | 0.559 | 0.166 | 0.766
5 | CC(=O)c1c(C)c2cnc(Nc3ccc(N4CCNCC4)cn3)nc2n(C2CCCC2)c1=O [Palbociclib] + Cn1cnc2c(F)c(Nc3ccc(Br)cc3Cl)c(C(=O)NOCCO)cc21 [Selumetinib] (first compound max 10 µM, 7x7, partner max 10 µM) | -0.0834 | 0.0443 | -0.0843 | 0.0207 | 0.0461 | 0.166 | -0.0379 | -0.0354 | -0.0685 | 0.479 | 0.235 | 0.351 | 0.47 | 0.343 | 0.556 | 0.283 | 0.64 | 0.785 | 0.769 | 0.876
6 | CCc1c2c(nc3ccc(O)cc13)-c1cc3c(c(=O)n1C2)COC(=O)[C@]3(O)CC [SN-38] + O=C(c1cc(Cc2n[nH]c(=O)c3ccccc23)ccc1F)N1CCN(C(=O)C2CC2)CC1 [Olaparib] (first compound max 0.3 µM, 7x7, partner max 10 µM) | 0.0007 | 0.104 | 0.0044 | 0.0731 | -0.0031 | -0.0221 | 0.102 | 0.0607 | 0.0877 | 0.915 | 1 | 0.799 | – | 0.766 | 0.665 | 0.85 | 0.681 | 0.96 | 0.936 | 0.99
7 | Cc1c2c(nn1C)CSCc1cc(n(C)n1)CSc1cc(c3ccccc3c1)OCCCc1c(C(=O)O)n(C)c3c-2c(Cl)ccc13 [AZD5991] + C[C@@H](Nc1cc(F)cc(F)c1)c1cc(C(=O)N(C)C)cc2c(=O)cc(N3CCOCC3)oc12 [AZD8186] (first compound max 1 µM, 7x7, partner max 3 µM) | -0.0603 | 0.0635 | -0.0012 | -0.0331 | -0.0297 | -0.0113 | – | -0.0077 | -0.0743 | 0.582 | 0.584 | 0.956 | 0.11 | 0.217 | 0.292 | 0.346 | 0.23 | 0.974 | 0.24 | 0.672
8 | CC(=O)c1c(C)c2cnc(Nc3ccc(N4CCNCC4)cn3)nc2n(C2CCCC2)c1=O [Palbociclib] + CN(CC[C@H](CSC1=CC=CC=C1)NC2=C(C=C(C=C2)S(=O)(=O)NC(=O)C3=CC=C(C=C3)N4CCC(CC4)[C@H](C5=CC=CC=C5C6=CC=C(C=C6)Cl)O)S(=O)(=O)C(F)(F)F)CCO [AZD4320] (first compound max 10 µM, 7x7, partner max 1 µM) | – | -0.0053 | – | – | -0.0765 | – | -0.0674 | 0.0056 | -0.0718 | – | 0.476 | 0.306 | 0.608 | 0.293 | 0.639 | – | – | – | 0.498 | –
9 | CN(CCO)CC[C@H](CSc1ccccc1)Nc1ccc(S(=O)(=O)NC(=O)c2ccc(N3CCC([C@@H](O)c4ccccc4-c4ccc(Cl)cc4)CC3)cc2)cc1S(=O)(=O)C(F)(F)F [AZD4320] + Cn1cnc2c(F)c(Nc3ccc(Br)cc3Cl)c(C(=O)NOCCO)cc21 [Selumetinib] (first compound max 1 µM, 7x7, partner max 3 µM) | -0.0405 | 0.0288 | -0.0067 | – | 0.0371 | 0.0613 | 0.0015 | 0.0453 | 0.0943 | 0.565 | 0.568 | 0.349 | 0.296 | 0.47 | 0.847 | 1 | 0.832 | 0.953 | 0.695 | 0.982
10 | Cc1c2c(nn1C)CSCc1cc(n(C)n1)CSc1cc(c3ccccc3c1)OCCCc1c(C(=O)O)n(C)c3c-2c(Cl)ccc13 [AZD5991] + C=CCn1c(=O)c2cnc(Nc3ccc(N4CCN(C)CC4)cc3)nc2n1-c1cccc(C(C)(C)O)n1 [AZD1775] (first compound max 1 µM, partner max 1 µM) | -0.0115 | -0.0253 | -0.0637 | -0.0115 | -0.0132 | -0.0032 | -0.0575 | 0.0535 | -0.0264 | 0.791 | 0.65 | 0.987 | 0.968 | 0.427 | – | 0.757 | 0.418 | 0.999 | 0.877 | 0.878
11 | C[C@@H](c1ccc2nccn2c1)n1nnc2ncc(-c3cnn(C)c3)nc21 [Savolitinib] + CN(CC[C@H](CSC1=CC=CC=C1)NC2=C(C=C(C=C2)S(=O)(=O)NC(=O)C3=CC=C(C=C3)N4CCC(CC4)[C@H](C5=CC=CC=C5C6=CC=C(C=C6)Cl)O)S(=O)(=O)C(F)(F)F)CCO [AZD4320] (first compound max 1 µM, 7x7, partner max 1 µM) | – | -0.0082 | – | – | -0.0347 | – | 0.0096 | -0.0545 | -0.0412 | – | 0.287 | 0.185 | 0.146 | 0.246 | 0.183 | – | – | – | 0.172 | –
12 | C=CCn1c(=O)c2cnc(Nc3ccc(N4CCN(C)CC4)cc3)nc2n1-c1cccc(C(C)(C)O)n1 [AZD1775] + C1CN(CCC1(C(=O)N[C@@H](CCO)C2=CC=C(C=C2)Cl)N)C3=NC=NC4=C3C=CN4 [Capivasertib] (first compound max 3 µM, partner max 3 µM) | 0.0495 | -0.0726 | 0.0297 | -0.0514 | -0.0611 | – | -0.0509 | 0.0135 | 0.0337 | 0.789 | 0.858 | 0.896 | 0.949 | 0.555 | 0.62 | 0.666 | 0.624 | 0.893 | 0.834 | 0.985
13 | COc1nnc2ccc(N3CCC(c4ccc(OCCN5CCN(C)C(=O)[C@H]5C)cc4)CC3)nn12 [AZD5153] + CN(CC[C@H](CSC1=CC=CC=C1)NC2=C(C=C(C=C2)S(=O)(=O)NC(=O)C3=CC=C(C=C3)N4CCC(CC4)[C@H](C5=CC=CC=C5C6=CC=C(C=C6)Cl)O)S(=O)(=O)C(F)(F)F)CCO [AZD4320] (first compound max 1 µM, 7x7, partner max 1 µM) | – | -0.0036 | – | – | 0.0229 | – | -0.0001 | -0.0328 | -0.0709 | – | 0.251 | 0.746 | 0.551 | 0.34 | 0.489 | – | – | – | 0.774 | –
14 | CN(CCO)CC[C@H](CSc1ccccc1)Nc1ccc(S(=O)(=O)NC(=O)c2ccc(N3CCC([C@@H](O)c4ccccc4-c4ccc(Cl)cc4)CC3)cc2)cc1S(=O)(=O)C(F)(F)F [AZD4320] + C[C@@H](Nc1cc(F)cc(F)c1)c1cc(C(=O)N(C)C)cc2c(=O)cc(N3CCOCC3)oc12 [AZD8186] (first compound max 1 µM, 7x7, partner max 3 µM) | -0.0381 | 0.0195 | 0.0256 | -0.0076 | -0.0014 | 0.0147 | 0.0588 | 0.0585 | -0.003 | 0.404 | 0.623 | 0.649 | – | 0.373 | 0.632 | 1 | 0.808 | 0.921 | 0.278 | 0.997
